Test results: patent US20220008455A1, “Compound and Composition for Use in the Preventive and/or Curative Treatment of Diseases of the Central Nervous System Characterised by a Decline in Neuronal Plasticity, in Particular Characterised by a Decline in Synaptic Plasticity” (SYNAPHARM INDUSTRIAL SYNTHESIS, priority 2017, published 2022)

Tested on: synaptic responses between Schaffer collaterals and dendrites in the CA1 region
Test: Long-term potentiation in hippocampal slices of magnesium-deficient rats (restoration of synaptic plasticity)
Type: ex vivo, rat
Experimental: [Comparative experiments were conducted on rats to measure the efficiency of synaptic transmission and synaptic plasticity, in particular in order to measure the recovery of synaptic plasticity.
Three groups of rats were made up as follows:
Group 1: control rats on a normal diet;
Group 2: magnesium-deficient rats on a low-magnesium diet;
Group 3: magnesium-deficient rats supplemented with a composition according to the invention containing magnesium N-acetyl taurinate dihydrate containing two intrinsic water molecules (ATAMg dihydrate) at a dose of […] magnesium N-acetyl taurinate dihydrate containing two intrinsic water molecules (in the water). Supplementation was started 40 days after the beginning of the low-magnesium diet and was carried on for 24 days.
The hippocampi of the rats from each group were dissected to measure synaptic plasticity. In particular, synaptic responses were measured between Schaffer collaterals and dendrites in the CA1 region. A baseline was recorded for 30 minutes corresponding to a synaptic response of 40% of the peak response. Then the long-term plasticity process was induced by applying four 100 Hz trains at 5-minute intervals. The increased response was measured over four hours. For every experiment, a control pathway without any high-frequency stimulation was also measured.

## CC(=O)NCCS(=O)(=O)[O-].CC(=O)NCCS(=O)(=O)[O-].O.O.[Mg+2] [magnesium N-acetyl taurinate dihydrate]
Group 3: magnesium-deficient rats supplemented in the water at 50 mg/kg/hour (50 mg/kg/day) for 24 days, four 100 Hz trains, response measured over four hours, FIG. 3
  long-term potentiation: over 300%
Group 3: magnesium-deficient rats supplemented in the water for 24 days, control pathway without high-frequency stimulation, FIG. 3
  control pathway / baseline stability: stabilisation of the baseline
Comparison of Group 3 (supplemented) with Group 2 (magnesium-deficient rats)
  recovery/restoration of synaptic plasticity: induces the recovery/restoration of synaptic plasticity
